Key:
[1] = system: Mycobacterium tuberculosis; experiment: Induction of membrane damage in Mycobacterium bovis BCG incubated for 60 mins under dark condition using DiOC2 probe by fluorescence assay; type: organism-based; settings: variant bovis BCG, 1 h
[2] = system: Mycobacterium tuberculosis; experiment: Antimycobacterial activity against Mycobacterium bovis BCG assessed as depletion of intracellular ATP level at 5 times antimycobacterial MIC after 20 hrs by luciferin/luciferase coupled reporter gene assay relative to control; type: functional, variant bovis BCG

Compound | IC50 [1] [µM] | Activity [2] [%]
CN(C)CCOc1ncc(Nc2cc(-c3ccccc3)nc3cc(-c4ccc(F)cc4)nn23)cc1F | > 100 | 25
COc1cc2nc(NCCC3CCOCC3)nc(Nc3cc(C(C)(C)C)n(C)n3)c2cc1OC | > 100 | –
CN(C)CCOc1ncc(Nc2cc(C(F)(F)F)nc3cc(-c4ccc(F)cc4)nn23)cc1F | > 100 | –
CN(C)CCOc1ncc(Nc2cc(-c3ccccc3)nc3cc(-c4ccc(F)cc4)[nH]c23)cc1F | > 100 | 23
CCOc1ncc(Nc2nc(NCCC3CCOCC3)nc3cc(OC)c(OC)cc23)cc1F | – | 31
COc1cc2nc(N3CCC(c4ccccc4Cl)C3)cc(Nc3cnc(OCCN(C)C)c(F)c3)c2cc1OC (stereo not drawn) | > 100 | 68
CN(C)CCOc1ncc(Nc2cc(N3CCC(c4ccccc4Cl)C3)nc3cc(F)c(F)cc23)cc1F (stereo not drawn) | > 100 | 25
COc1cc2nc(N3CCC(c4ccccc4Cl)C3)cc(Nc3cnc(NCCN(C)C)c(F)c3)c2cc1OC (stereo not drawn) | – | 22
CCOc1ncc(Nc2cc(NCCC3CCOCC3)nc3cc(OC)c(OC)cc23)cc1F | > 100 | 5
COc1nc2ccc(Br)cc2cc1[C@@H](c1ccccc1)[C@@](O)(CCN(C)C)c1cccc2ccccc12 [BEDAQUILINE] | > 100 | 76
N#CC(C#N)=NNc1cccc(Cl)c1 [CARBONYL CYANIDE M-CHLOROPHENYLHYDRAZONE] | 3 | –
NNC(=O)c1ccncc1 [ISONIAZID] | – | -6
